ChEMBL document CHEMBL1201862, “PubChem BioAssay data set” (2004)
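Interpolation was linear, between the two tested concentrations surrounding the appropriate level; five concentrations were tested over 48 hours in 96-well plates. GI50 = concentration required for 50% inhibition of growth.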 Activity calls are given as the source filed them. Rule as the data show it: active = GI50 up to about 1.1 µM and inactive = higher.

Columns and labels:
Experiment in all cases: NCI-60 cell line screen, 48 h
MDA-MB-435 = tested on: MDA-MB-435
SK-MEL-5 = tested on: SK-MEL-5
NCI-H460 = tested on: NCI-H460
OVCAR-5 = tested on: OVCAR-5
SK-OV-3 = tested on: SK-OV-3
SW-620 = tested on: SW-620
SF-268 = tested on: SF-268
ACHN = tested on: ACHN
HOP-62 = tested on: HOP-62
COLO 205 = tested on: COLO 205
RPMI-8226 = tested on: RPMI-8226
OVCAR-4 = tested on: OVCAR-4
SR = tested on: SR
IGROV-1 = tested on: IGROV-1
HL-60 = tested on: HL-60
U-251 = tested on: U-251
T47D = tested on: T47D
MOLT-4 = tested on: MOLT-4
A549 = tested on: A549
M14 = tested on: M14
CAKI-1 = tested on: CAKI-1
SNB-75 = tested on: SNB-75
UACC-62 = tested on: UACC-62
NCI-H23 = tested on: NCI-H23
SK-MEL-28 = tested on: SK-MEL-28
786-0 = tested on: 786-0
SK-MEL-2 = tested on: SK-MEL-2
CCRF-CEM = tested on: CCRF-CEM
RXF 393 = tested on: RXF 393
K562 = tested on: K562
Malme-3M = tested on: Malme-3M
MCF7 = tested on: MCF7
NCI/ADR-RES = tested on: NCI/ADR-RES
MDA-N = tested on: MDA-N
PC-3 = tested on: PC-3
SF-295 = tested on: SF-295
MDA-MB-231 = tested on: MDA-MB-231
SF-539 = tested on: SF-539
BT-549 = tested on: BT-549
HCT-15 = tested on: HCT-15
SN12C = tested on: SN12C
HT-29 = tested on: HT-29
KM12 = tested on: KM12
HCC 2998 = tested on: HCC 2998
OVCAR-8 = tested on: OVCAR-8
TK-10 = tested on: TK-10
EKVX = tested on: EKVX
SNB-19 = tested on: SNB-19
UO-31 = tested on: UO-31
UACC-257 = tested on: UACC-257
LOX IMVI = tested on: LOX IMVI
HCT-116 = tested on: HCT-116
HOP-92 = tested on: HOP-92
NCI-H522 = tested on: NCI-H522
DU-145 = tested on: DU-145
A498 = tested on: A498
OVCAR-3 = tested on: OVCAR-3
NCI-H226 = tested on: NCI-H226
Hs-578T = tested on: Hs-578T

SMILES: CC1=C2C(=O)c3ccccc3C2=C(C)S(=O)(=O)O1
- GI50 (MDA-MB-435): > 10000 nM (inactive)
- GI50 (SK-MEL-5): > 10000 nM (inactive)
- GI50 (NCI-H460): > 10000 nM (inactive)
- GI50 (OVCAR-5): > 10 µM (inactive)
- GI50 (SK-OV-3): > 10 µM (inactive)
- GI50 (SW-620): > 10 µM (inactive)
- GI50 (SF-268): > 10000 nM (inactive)
- GI50 (ACHN): > 10 µM (inactive)
- GI50 (HOP-62): > 10 µM (inactive)
- GI50 (COLO 205): > 10 µM (inactive)
- GI50 (RPMI-8226): > 10000 nM (inactive)
- GI50 (OVCAR-4): > 10 µM (inactive)
- GI50 (SR): > 10 µM (inactive)
- GI50 (IGROV-1): > 10000 nM (inactive)
- GI50 (HL-60): > 10000 nM (inactive)
- GI50 (U-251): > 10 µM (inactive)
- GI50 (T47D): > 10 µM (inactive)
- GI50 (MOLT-4): > 10000 nM (inactive)
- GI50 (A549): > 10000 nM (inactive)
- GI50 (M14): > 10 µM (inactive)
- GI50 (CAKI-1): > 10 µM (inactive)
- GI50 (SNB-75): > 10 µM (inactive)
- GI50 (UACC-62): > 10000 nM (inactive)
- GI50 (NCI-H23): > 10000 nM (inactive)
- GI50 (SK-MEL-28): > 10 µM (inactive)
- GI50 (786-0): > 10 µM (inactive)
- GI50 (SK-MEL-2): > 10 µM (inactive)
- GI50 (CCRF-CEM): > 10000 nM (inactive)
- GI50 (RXF 393): > 10 µM (inactive)
- GI50 (K562): > 10 µM (inactive)
- GI50 (Malme-3M): > 10 µM (inactive)
- GI50 (MCF7): > 10000 nM (inactive)
- GI50 (NCI/ADR-RES): > 10 µM (inactive)

SMILES: Nc1ccc2c(c1)N(C(=O)CCCC(=O)N1CC(CCl)c3ccc(N)cc31)CC2CCl (stereo unspecified)
- GI50 (MDA-MB-435): 953 nM (active)
- GI50 (SK-MEL-5): 236 nM (active)
- GI50 (MDA-N): 1.06 µM (active)
- GI50 (NCI-H460): 716 nM (active)
- GI50 (PC-3): 1.08 µM (active)
- GI50 (OVCAR-5): 0.875 µM (active)
- GI50 (SK-OV-3): 2.34 µM (inactive)
- GI50 (SW-620): 0.977 µM (active)
- GI50 (SF-295): 400 nM (active)
- GI50 (SF-268): 115 nM (active)
- GI50 (ACHN): 0.112 µM (active)
- GI50 (MDA-MB-231): 1.43 µM (inactive)
- GI50 (SF-539): 461 nM (active)
- GI50 (HOP-62): 0.262 µM (active)
- GI50 (COLO 205): 0.735 µM (active)
- GI50 (BT-549): 719 nM (active)
- GI50 (HCT-15): 1240 nM
- GI50 (RPMI-8226): 260 nM (active)
- GI50 (SN12C): 469 nM (active)
- GI50 (OVCAR-4): 0.867 µM (active)
- GI50 (SR): 0.017 µM (active)
- GI50 (IGROV-1): 411 nM (active)
- GI50 (HT-29): 946 nM (active)
- GI50 (KM12): 948 nM (active)
- GI50 (HL-60): 19.9 nM (active)
- GI50 (HCC 2998): 1.45 µM (inactive)
- GI50 (U-251): 0.513 µM (active)
- GI50 (MOLT-4): 64.6 nM (active)
- GI50 (A549): 472 nM (active)
- GI50 (M14): 0.604 µM (active)
- GI50 (OVCAR-8): 466 nM (active)
- GI50 (CAKI-1): 0.141 µM (active)
- GI50 (SNB-75): 0.535 µM (active)
- GI50 (TK-10): 1.53 µM (inactive)
- GI50 (EKVX): 1.51 µM (inactive)
- GI50 (UACC-62): 354 nM (active)
- GI50 (NCI-H23): 218 nM (active)
- GI50 (SK-MEL-28): 1.23 µM (inactive)
- GI50 (786-0): 0.169 µM (active)
- GI50 (SNB-19): 1.21 µM (inactive)
- GI50 (UO-31): 561 nM (active)
- GI50 (SK-MEL-2): 0.587 µM (active)
- GI50 (UACC-257): 1.26 µM (inactive)
- GI50 (LOX IMVI): 267 nM (active)
- GI50 (CCRF-CEM): 185 nM (active)
- GI50 (HCT-116): 394 nM (active)
- GI50 (HOP-92): 1.97 µM (inactive)
- GI50 (NCI-H522): 71.3 nM (active)
- GI50 (RXF 393): 0.195 µM (active)
- GI50 (DU-145): 121 nM (active)
- GI50 (K562): 0.873 µM (active)
- GI50 (Malme-3M): 0.0883 µM (active)
- GI50 (MCF7): 333 nM (active)
- GI50 (NCI/ADR-RES): 1.15 µM (inactive)
- GI50 (A498): 1.07 µM (active)
- GI50 (OVCAR-3): 971 nM (active)
- GI50 (NCI-H226): 22.6 nM (active)
- GI50 (Hs-578T): 918 nM (active)

SMILES: CC(=O)O[C@H]1C(=O)[C@@]2(C)C(C(OC(=O)c3ccccc3)[C@]3(O)CC(OC(=O)[C@H](OC(=O)CCC(=O)O)C(NC(=O)c4ccccc4)c4ccccc4)C(C)=C1C3(C)C)C1(OC(C)=O)COC1C[C@@H]2O (stereo partly specified)
- GI50 (MDA-MB-435): < 10 nM (active)
- GI50 (SK-MEL-5): < 15.9 nM (active)
- GI50 (MDA-N): < 0.01 µM (active)
- GI50 (NCI-H460): < 13.2 nM (active)
- GI50 (PC-3): < 0.0128 µM (active)
- GI50 (SF-268): 25.2 nM (active)
- GI50 (SF-539): < 10 nM (active)
- GI50 (HCT-15): 995 nM
- GI50 (RPMI-8226): < 10 nM (active)
- GI50 (OVCAR-4): 31.8 µM (inactive)
- GI50 (IGROV-1): < 11.9 nM (active)
- GI50 (HL-60): < 10 nM (active)
- GI50 (HCC 2998): 0.0302 µM (active)
- GI50 (T47D): 0.0272 µM (active)
- GI50 (MOLT-4): < 15.3 nM (active)
- GI50 (A549): 36.6 nM (active)
- GI50 (CAKI-1): 5.3 µM (inactive)
- GI50 (TK-10): 0.136 µM (active)
- GI50 (UACC-62): < 11.3 nM (active)
- GI50 (NCI-H23): 19.3 nM (active)
- GI50 (SNB-19): 0.0506 µM (active)
- GI50 (LOX IMVI): < 10.5 nM (active)
- GI50 (CCRF-CEM): < 10 nM (active)
- GI50 (HCT-116): < 10 nM (active)
- GI50 (HOP-92): 0.656 µM (active)
- GI50 (NCI-H522): < 10 nM (active)
- GI50 (MCF7): < 10 nM (active)
- GI50 (A498): < 0.0118 µM (active)
- GI50 (NCI-H226): 12.2 nM (active)
- GI50 (Hs-578T): < 17.5 nM (active)
